{"source": "patent US20210132079A1", "about": "“ANTIBODY” (UCB Biopharma SRL, priority 2015, published 2021)", "key": {"soluble form of CD40L": {"target": "T1, soluble form of CD40L (Homo sapiens, UniProt P29965)", "T1 sequence (P29965 113-261 limits assumed)": "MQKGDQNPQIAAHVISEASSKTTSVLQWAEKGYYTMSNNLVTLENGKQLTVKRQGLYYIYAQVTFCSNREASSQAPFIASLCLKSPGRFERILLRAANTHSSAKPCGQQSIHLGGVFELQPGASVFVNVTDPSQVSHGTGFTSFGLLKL", "test": "SPR on Biacore 4000 against immobilised CD40L", "details": "read-out: geomean IC50 for binding against CD40L", "protocol": "(§1) In another experiment, BIO8898 was tested against the immobilised soluble form of CD40L and the soluble form of TNFα by SPR on a Biacore 4000 machine."}, "soluble form of TNFα": {"target": "T2, soluble form of TNFα (Homo sapiens, UniProt P01375)", "T2 construct": "immobilised soluble form of CD40L and the soluble form of TNFα by SPR", "T2 sequence (P01375 77-233 limits assumed)": "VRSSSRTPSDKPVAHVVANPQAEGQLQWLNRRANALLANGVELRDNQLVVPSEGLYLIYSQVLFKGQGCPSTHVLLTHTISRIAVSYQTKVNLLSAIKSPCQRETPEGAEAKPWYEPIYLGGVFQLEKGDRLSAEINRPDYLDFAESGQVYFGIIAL", "test": "SPR on Biacore 4000 against immobilised TNFα", "type": "binding", "details": "concentration of up to 100 μM", "protocol": "as §1"}}, "note": "Entries after “also recorded” stand apart in the source; their conditions may differ."}
{"smiles": "O=C(NCc1cccc(-c2ccccc2)c1)c1cc(-c2cc(C(=O)NC(C(=O)O)C3CCCCC3)nc(C(=O)N3CCCC3CN3CCCC3)c2)cc(C(=O)N2CCCC2CN2CCCC2)n1", "note": "(centres unmarked) [BIO8898]", "values": [{"measurement": "IC50", "setting": "soluble form of CD40L", "value": 17, "unit": "µM"}, {"measurement": "binding to TNFα", "setting": "soluble form of TNFα", "value": "found not to bind; also recorded: no binding was detected"}]}
